# Test: recombinant barcode read abundance after kanamycin selection (control-corrected) (log10(CPM+1)); higher = more efficient recombination; sequences stand for … in AGTGCAGAGAAAATCGGCCAGTTTTCTCTGCCTGCAGTCCGCATGCCGT…AGATTTATGCAGCGGACTGCCTTTCTCCCAAAGTGATAAACCGGACAGTATCATGGACCGGTTTTCCCGGTAATCCGTATTTGCAAGGTTGGTTTCACT; site = the 11-nt target
# Procedure, shortened: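 IS621 bridge RNA target-binding loops were paired with targets in a pooled library tested in E. coli. After co-electroporation with a donor plasmid, cells were plated in two replicates on chloramphenicol/ampicillin LB agar (control) and on chloramphenicol/ampicillin/kanamycin carrying 0.1 mM IPTG. Barcodes at recombinant junctions were counted as counts per million, averaged and control-corrected to give recombination efficiency. Values are log10(CPM+1).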
# 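Also: IS621 recombinase and bridge RNA in Escherichia coli cells.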
row,Sequence,recombinant barcode read abundance (log10)
1,CGGTAACCTTGGGTTCTAACCTGTTGCCT (site AGGTAACCTAG),0.429
2,CGGTAACCTTGGGTTCTAACCTGTTGCCT (site CGGTAACCTAG),0.761
3,CGGTAACCTTGGGTTCTAACCTGTTGCCT (site GGGTAACCTAG),0.185
4,CGGTAACCTTGGGTTCTAACCTGTTGCCT (site TGGTAACCTAG),0.753
5,CGGTAGTCTTGGGTTCTAACCTGTTGCTT (site CGGTAGTCTAA),1.41
6,CGGTAGTCTTGGGTTCTAACCTGTTGCTT (site CGGTAGTCTCA),0.0659
7,CGGTGTCCTTGGGTTCTAACCTGTTGCTA (site CGGAGTCCTTA),0.0633
8,CGGTGTCCTTGGGTTCTAACCTGTTGCTA (site CGGCGTCCTTA),0.586
9,CGGTGTCCTTGGGTTCTAACCTGTTGCTA (site CGGGGTCCTTA),0.225
10,CGGTGTCCTTGGGTTCTAACCTGTTGCTA (site CGGTGTCCTTA),1.33
11,CGGTTTCCTTGGGTTCTAACCTGTTGCCT (site CGGTTTCCTAG),0.848
12,CGGTTTCCTTGGGTTCTAACCTGTTGCCT (site CTATTTCCTAG),0.0218
13,CGTAAGTCTTGGGTTCTAACCTGTTGCCT (site CGTAAGTCTAG),1.11
14,CGTAAGTCTTGGGTTCTAACCTGTTGCCT (site TATAAGTCTAG),0.0991
15,CGTACGACTTGGGTTCTAACCTGTTGCAT (site CGTACGACTAT),0.215
16,CGTACGACTTGGGTTCTAACCTGTTGCAT (site CGTCCGACTAT),0.451
17,CGTACGACTTGGGTTCTAACCTGTTGCAT (site CGTGCGACTAT),0.236
18,CGTACGACTTGGGTTCTAACCTGTTGCAT (site CGTTCGACTAT),0.0932
19,CGTAGGTCTTGGGTTCTAACCTGTTGCCT (site CGTAGGTCTAG),0.101
20,CGTAGGTCTTGGGTTCTAACCTGTTGCCT (site CTTAGCTCTAG),0.0284
21,CGTCCTCCTTGGGTTCTAACCTGTTGCAT (site CCGCCTCCTAT),0.00736
22,CGTCCTCCTTGGGTTCTAACCTGTTGCAT (site CGTCCTCCTAT),0.089
23,CGTCCTGCTTGGGTTCTAACCTGTTGCTT (site CGTCCTGCTAA),0.527
24,CGTCCTGCTTGGGTTCTAACCTGTTGCTT (site TAGGGGACTTT),0.0676
25,CGTCGCACTTGGGTTCTAACCTGTTGCCT (site CATCGCACTAG),0.234
26,CGTCGCACTTGGGTTCTAACCTGTTGCCT (site CCTCGCACTAG),0.029

row,Sequence,recombinant barcode read abundance (log10)
1,CGTCGCACTTGGGTTCTAACCTGTTGCCT (site CGTCGCACTAG),0.0318
2,CGTCGCACTTGGGTTCTAACCTGTTGCCT (site CTTCGCACTAG),0.164
3,CGTCGTACTTGGGTTCTAACCTGTTGCCT (site CGACGTACTAG),0.504
4,CGTCGTACTTGGGTTCTAACCTGTTGCCT (site CGCCGTACTAG),0.0657
5,CGTCGTACTTGGGTTCTAACCTGTTGCCT (site CGGCGTACTAG),0.0235
6,CGTCGTACTTGGGTTCTAACCTGTTGCCT (site CGTCGTACTAG),0.136
7,CGTCTCCCTTGGGTTCTAACCTGTTGCCT (site CCTCTGCCTAG),0.0171
8,CGTCTCCCTTGGGTTCTAACCTGTTGCCT (site CGTCTCCCTAG),0.451
9,CGTGTAACTTGGGTTCTAACCTGTTGCCT (site CGTATATCTAG),0.13
10,CGTGTAACTTGGGTTCTAACCTGTTGCCT (site CGTGTAACTAG),0.332
11,CGTTCGACTTGGGTTCTAACCTGTTGCAT (site CGTACGACTAT),0.131
12,CGTTCGACTTGGGTTCTAACCTGTTGCAT (site CGTCCGACTAT),0.0713
13,CGTTCGACTTGGGTTCTAACCTGTTGCAT (site CGTGCGACTAT),0.174
14,CGTTCGACTTGGGTTCTAACCTGTTGCAT (site CGTTCGACTAT),0.133
15,CGTTCGACTTGGGTTCTAACCTGTTGCCT (site CGTTCAACTAG),0.0692
16,CGTTCGACTTGGGTTCTAACCTGTTGCCT (site CGTTCCACTAG),0
17,CGTTCGACTTGGGTTCTAACCTGTTGCCT (site CGTTCGACTAG),0.0748
18,CGTTCGACTTGGGTTCTAACCTGTTGCCT (site CGTTCTACTAG),0.0286
19,CGTTCTCCTTGGGTTCTAACCTGTTGCCT (site AGTTCTCCTAG),0.0567
20,CGTTCTCCTTGGGTTCTAACCTGTTGCCT (site CGTTCTCCTAG),0.0201
21,CGTTCTCCTTGGGTTCTAACCTGTTGCCT (site GGTTCTCCTAG),0.0547
22,CGTTCTCCTTGGGTTCTAACCTGTTGCCT (site TGTTCTCCTAG),0.121
23,CGTTGCCCTTGGGTTCTAACCTGTTGCCT (site CATTGCCCTAG),0.19
24,CGTTGCCCTTGGGTTCTAACCTGTTGCCT (site CCTTGCCCTAG),0.0881
25,CGTTGCCCTTGGGTTCTAACCTGTTGCCT (site CGTTGCCCTAG),0.166
26,CGTTGCCCTTGGGTTCTAACCTGTTGCCT (site CTTTGCCCTAG),0.468

row,Sequence,recombinant barcode read abundance (log10)
1,CGTTGGTCTTGGGTTCTAACCTGTTGCGA (site CGTTGGTCTTC),0.759
2,CGTTGGTCTTGGGTTCTAACCTGTTGCGA (site TTGCATCCTCT),0.0731
3,CGTTTCCCTTGGGTTCTAACCTGTTGCAG (site CGTTTCCCTAC),0.152
4,CGTTTCCCTTGGGTTCTAACCTGTTGCAG (site CGTTTCCCTCT),0.427
5,CGTTTCCCTTGGGTTCTAACCTGTTGCGT (site CGTTTCCCTAC),1.04
6,CGTTTCCCTTGGGTTCTAACCTGTTGCGT (site CGTTTCCCTCT),0.0161
7,CTAAAACCTTGGGTTCTAACCTGTTGCCT (site ATAAAACCTAG),0.0167
8,CTAAAACCTTGGGTTCTAACCTGTTGCCT (site CTAAAACCTAG),1
9,CTAAAACCTTGGGTTCTAACCTGTTGCCT (site GTAAAACCTAG),0.0969
10,CTAAAACCTTGGGTTCTAACCTGTTGCCT (site TTAAAACCTAG),0.218
11,CTAAAGTCTTGGGTTCTAACCTGTTGCCA (site CTAAAGTCTTG),0.399
12,CTAAAGTCTTGGGTTCTAACCTGTTGCCA (site GTAAAGTCTTG),0.0268
13,CTAAATACTTGGGTTCTAACCTGTTGCTA (site CTAAATACTAG),0.835
14,CTAAATACTTGGGTTCTAACCTGTTGCTA (site CTAAATACTTA),0.126
15,CTAACCACTTGGGTTCTAACCTGTTGCCA (site CTAACCACTTG),0.329
16,CTAACCACTTGGGTTCTAACCTGTTGCCA (site CTAACTACTAG),0.0393
17,CTAACCTCTTGGGTTCTAACCTGTTGCTC (site CTAACCTCTAA),0.0754
18,CTAACCTCTTGGGTTCTAACCTGTTGCTC (site CTAACCTCTCA),0.0593
19,CTAACCTCTTGGGTTCTAACCTGTTGCTC (site CTAACCTCTGA),1.66
20,CTAACCTCTTGGGTTCTAACCTGTTGCTC (site CTAACCTCTTA),0.0437
21,CTAACCTCTTGGGTTCTAACCTGTTGCTG (site CTAACCTCTAA),0.0311
22,CTAACCTCTTGGGTTCTAACCTGTTGCTG (site CTAACCTCTCA),1.49
23,CTAACCTCTTGGGTTCTAACCTGTTGCTG (site CTAACCTCTGA),0.0869
24,CTAACCTCTTGGGTTCTAACCTGTTGCTG (site CTAACCTCTTA),0.0665
25,CTAACTACTTGGGTTCTAACCTGTTGCCT (site CTAACCACTTG),0
